Assay results as given in patent publication US12138286B2, “Combination method for treating or preventing childhood atopic disease” (Johnson & Johnson Consumer Inc., priority 2022, dated 2024).

Tested on: high-risk infants
Set-up: species or system human
Settings: in vivo
Source text: High-risk infants were identified using parental history of atopic disease and were randomized to either the skin treatment regimen and composition or standard routine care, each set forth below, from soon after recruitment in the postnatal ward (approximately 4 day) until eight weeks of age. Both the intervention and standard of care groups were advised to use a standardized bathing routine for the first 2 months. • Skin treatment regimen and composition: twice daily whole-body application of […] & Long-Lasting Balm, which on pack contains the following ingredients: glycerin, aqua, cetearyl alcohol, isocetyl alcohol, dimethicone, cetyl alcohol, Avena sativa kernel flour, Avena sativa kernel extract, Avena sativa kernel oil, caprylic/capric triglyceride, ceramide 3, ethylhexylglycerin, p-anisic acid, sodium cetearyl sulfate, palmitic acid, stearic acid, sodium sulfate, sodium chloride, citric acid, dipotassium phosphate, potassium phosphate, sodium hydroxide, tocopherol, benzyl alcohol, benzoic acid, and potassium sorbate. • Control: Standard routine care, which involves no use of moisturizer for the first two months. Within approximately 4 days of birth, infants were randomized to either treatment with skin treatment regimen and composition or to standard routine skincare with no moisturizer until 2 months of age. […]

Infants advised to stop applying the emollient after developing a rash with a potential temporal relationship with the emollient: One
Parent-reported skin infections: 5%
Substance: AVEENO® Dermexa Fast & Long-Lasting Balm [Intervention]
